From US20120071471A1, “NOVEL BENZOXAZINONE DERIVATIVES USEFUL FOR THE TREATMENT OF CNS DISORDERS” (NEUROSEARCH A/S, priority 2009, published 2012)

What was measured:
female NMRI mice = experiment: 6 Hz corneal stimulation psychomotor seizure model (anticonvulsant properties); assay type: in vivo; conditions: Mus musculus, 32 mA, 3 s corneal stimulation, N=8/group, read-out: ED50 (dose that would give a 50% protection from seizures)
Description: The evaluation of the anticonvulsant properties was carried out in female NMRI mice (20-25 g, Taconic, Denmark). The mice were housed in groups (8 per cage according to weight) with food and water available ad libitum The environment was temperature (20±2° C.) and humidity (55±15%) controlled, and consisted of a 12:12 h light-dark cycle (lights on 06:00 h). The experiments were performed according to the Danish Committee for Experiments on Animals. Psychomotor seizures were induced via corneal stimulation (6 Hz, 0.2 ms rectangular pulses at 32 mA for 3 s) using a Grass S48 stimulator, constant current unit (CCU1) and isolation unit (SIU5), all driven by a stimulus generator (Master-8, AMPI, Israel).
The pads of the corneal stimulator were soaked in 0.9% saline. The mice were restrained during corneal stimulation and released immediately after and observed for the presence or absence of seizure activity.
The duration of any of these seizure variables is 10-75 seconds. In the presence of any of the seizure variables the mice was labelled 0% protection, and if none of the above, the mice was labelled 100% protection.
For screening purposes, the test compound was tested at 1 dose at 1 time-point. In the case of protection of 3 or more out of 8 mice, the compound were further evaluated in dose response (N=8/group). […]

[1] = De Marchi et al., Journal of Pharmaceutical Sciences 1971 60 (11); cited from earlier work

melting point [°C]	Compound	ED50 (female NMRI mice) [mg/kg]	anticonvulsant activity [1]
253.4 to 254.3	NC(=O)CN1C(=O)OCc2cc(Br)ccc21 [Compound 1, 2-(6-bromo-2-oxo-4H-3,1-benzoxazin-1-yl)acetamide]	13	–
–	NC(=O)CN1C(=O)OCc2ccccc21 [2-(2-oxo-4H-benzo[d][1,3]oxazin-1-yl)-acetamide]	–	biologically inactive
